Experimental data reported in ChEMBL document CHEMBL1134257, “Probing the transducin nucleotide binding site with GDP analogues” (Bioorg Med Chem Lett, 2001).

test: Inhibitory concentration for heterotrimeric G protein, transducer

IC50 [µM] | SMILES
500 | CCC(=O)O[C@H]1[C@@H](O)[C@H](n2cnc3c(O)nc(N)nc32)O[C@@H]1COP(=O)(O)NP(=O)(O)O
> 1000 | NCCOCCOc1nc(N)nc2c1ncn2C1O[C@H](COP(=O)(O)NP(=O)(O)O)[C@@H](O)[C@H]1O (stereo partly drawn)
12 | Nc1nc(O)c2ncn(C3O[C@H](COP(=O)(O)NP(=O)(O)O)[C@@H](O)[C@H]3O)c2n1 (stereo partly drawn)
> 1000 | NCCOCCOCCn1c(N)nc2c(ncn2C2O[C@H](COP(=O)(O)NP(=O)(O)O)[C@@H](O)[C@H]2O)c1=O (stereo partly drawn)
> 1000 | Nc1nc2c(ncn2[C@@H]2O[C@H](COC(=O)CP(=O)(O)O)C(O)C2O)c(=O)[nH]1 (single isomer, unassigned)
> 1000 | Nc1nc(O)c2ncn(C3O[C@H](COP(=O)(O)CC(=O)O)C(O)C3O)c2n1 (single isomer, unassigned)
> 1000 | Nc1nc(O)c2ncn(C3O[C@H](COC(=O)CC(=O)O)C(O)C3O)c2n1 (single isomer, unassigned)

SMILES | IC50 [µM]
Nc1nc2c(ncn2[C@@H]2O[C@H](COP(=O)(O)CP(=O)(O)O)C(O)C2O)c(=O)[nH]1 (single isomer, unassigned) [PHOSPHOMETHYLPHOSPHONIC ACID GUANOSYL ESTER] | > 1000
